Reference: patent publication US5688913A, “CS-1 peptidomimetics, compositions and methods of using the same” (Cytel Corporation, priority 1995, dated 1997)
Where two headings read alike, the source gives them in different places. Square brackets hold non-standard residues; d marks the D form. Peptide text beside a SMILES is read from it. * marks the point of attachment. Isonicotinoyl = O=C(c1ccncc1)*; Morpholide = C1CN(*)CCO1; PhAc = O=C(Cc1ccccc1)*; NHBn = c1ccc(CN*)cc1

Target: VLA-4 (Homo sapiens, UniProt P05556+P13612)
Test: cell-based
Format: cell-based
Parameters: host or cells: Jurkat (human T lymphoblastic line)
Procedure: Binding inhibition is measured here as a concentration of peptide that inhibits one-half the binding between a standard number of Jurkat cells and a standard amount of CS-1 peptide bound to the surface of a microtiter plate well. Those concentrations are conveniently expressed as IC50 values, smaller numbers indicating a lower concentration required to inhibit 50 percent binding and therefore greater potency. Further specifics of this assay are provided hereinafter.
Jurkat cells (ATCC TIB 152), a human T lymphoblastic line, labeled with ^51 chromium were used to assay in vitro binding inhibition provided by various peptides discussed herein.
The plates were prepared as follows: The 25-mer CS-1 peptide (SEQ ID NO:1) dissolved at 0.5-1 μg/ml in a buffer of 0.1M NaHCO3 at pH 9.5 that also contained 10 μg/ml of bovine serum albumin (BSA) or a conjugate of the CS-1 peptide linked to ovalbumin (CS-1-OVA) dissolved at 1-2.5 μg/ml in the same buffer was used as the substrate. Each well of the microtiter plates was coated with 50 μl of substrate or buffer alone for controls. The wells were permitted to dry out completely and were then rinsed twice with PBS at pH 7.4. Non-specific binding sites of each well were then blocked using 200 μl per well of RPMI/1 percent BSA for two hours at room temperature. Both solid phase-affixed substrates provided similar results.
Jurkat cells (3-5×10^6 cells) were placed into a 15 ml Falcon™ round-bottom tube with a cap. The tube was centrifuged, and the extra medium was then removed.
Two hundred microliters of a ^51 Cr labeling solution were added to the centrifuged cells and maintained in contact with the cells for 90-120 minutes in a warm room. This procedure typically provides about 50,000-100,000 cpm/well with about 80-100 percent cell viability. Longer contact times provide a greater amount of labeling but lower cell viability.
The labeled cells are washed with (i) complete medium, (ii) 1 mM EDTA/PBS and then (iii) RPM1/1 percent BSA free of serum components. The cells are centrifuged after each washing. The cells are finally resuspended in serum-free RPMI/1 percent BSA at a concentration of 1×10^6 viable cells/ml, which provides a concentration that is diluted by one-half in the assay.
Inhibitor peptides are prepared as stock solutions at 20 mg/ml in DMSO in 1.5 ml cryogenic screwcap vials, and were stored at -70° C. Using Flow™ round-bottom or V-bottom microtiter plates, the inhibitor peptides were prepared at twice the assay concentration in RPMI/1 percent BSA at 60 μl well.
Four initial dilutions were typically used.
The ^51 Cr-labeled cells (1×10^6 cells at 60 μl/well) were then admixed with the diluted peptide solutions. The admixtures were maintained at room temperature (about 22° C.) for 30 minutes.
One hundred microliters of each inhibitor peptide/cell admixture were transferred to the substrate-coated wells. This was done in triplicate for each dilution. The resulting plates were incubated for 30 minutes at 37° C. and then washed gently three times with RPMI/1 percent BSA at 200 μl/well. Binding was observed microscopically, particularly after the second wash.
The bound cells were then lysed by the addition of a 0.5 percent solution of sodium dodecylsulfate in water at 100 μ/l well. The resulting solutions were then processed for counting and calculation of IC50 values following usual procedures. Appropriate positive and negative controls were used with each plate so that the results of separate assays could be normalized and compared.
The data of Table 1 are so normalized.

[1] = normalized IC50 relative to standard peptide of SEQ ID NO:3 (=1), about one-tenth or less of the standard is assigned zero

Sequence of VLA-4 (P13612 34-1032): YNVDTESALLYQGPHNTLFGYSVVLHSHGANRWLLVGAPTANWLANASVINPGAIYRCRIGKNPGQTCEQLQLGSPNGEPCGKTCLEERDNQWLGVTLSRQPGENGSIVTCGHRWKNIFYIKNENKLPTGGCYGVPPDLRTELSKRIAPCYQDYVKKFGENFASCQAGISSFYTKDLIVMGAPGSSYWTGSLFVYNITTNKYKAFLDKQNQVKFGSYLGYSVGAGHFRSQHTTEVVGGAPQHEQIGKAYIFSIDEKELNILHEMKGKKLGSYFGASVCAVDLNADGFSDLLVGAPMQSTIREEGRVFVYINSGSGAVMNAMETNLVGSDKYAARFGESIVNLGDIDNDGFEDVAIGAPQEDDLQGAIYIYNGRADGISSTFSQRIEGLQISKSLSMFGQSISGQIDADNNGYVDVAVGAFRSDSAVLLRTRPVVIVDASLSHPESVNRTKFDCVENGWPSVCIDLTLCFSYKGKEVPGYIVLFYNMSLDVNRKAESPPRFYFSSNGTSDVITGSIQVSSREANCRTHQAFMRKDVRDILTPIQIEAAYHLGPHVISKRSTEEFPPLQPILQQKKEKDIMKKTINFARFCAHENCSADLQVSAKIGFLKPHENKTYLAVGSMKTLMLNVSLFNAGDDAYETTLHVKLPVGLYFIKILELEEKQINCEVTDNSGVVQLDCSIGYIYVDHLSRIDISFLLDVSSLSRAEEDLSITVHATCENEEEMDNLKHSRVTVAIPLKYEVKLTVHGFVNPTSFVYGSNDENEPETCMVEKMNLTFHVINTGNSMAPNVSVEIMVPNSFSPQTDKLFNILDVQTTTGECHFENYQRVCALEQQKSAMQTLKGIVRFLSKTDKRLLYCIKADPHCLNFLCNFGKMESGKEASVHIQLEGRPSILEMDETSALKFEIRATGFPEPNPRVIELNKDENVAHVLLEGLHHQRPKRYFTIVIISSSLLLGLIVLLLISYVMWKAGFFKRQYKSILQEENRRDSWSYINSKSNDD
Sequence of VLA-4 (P05556 21-798): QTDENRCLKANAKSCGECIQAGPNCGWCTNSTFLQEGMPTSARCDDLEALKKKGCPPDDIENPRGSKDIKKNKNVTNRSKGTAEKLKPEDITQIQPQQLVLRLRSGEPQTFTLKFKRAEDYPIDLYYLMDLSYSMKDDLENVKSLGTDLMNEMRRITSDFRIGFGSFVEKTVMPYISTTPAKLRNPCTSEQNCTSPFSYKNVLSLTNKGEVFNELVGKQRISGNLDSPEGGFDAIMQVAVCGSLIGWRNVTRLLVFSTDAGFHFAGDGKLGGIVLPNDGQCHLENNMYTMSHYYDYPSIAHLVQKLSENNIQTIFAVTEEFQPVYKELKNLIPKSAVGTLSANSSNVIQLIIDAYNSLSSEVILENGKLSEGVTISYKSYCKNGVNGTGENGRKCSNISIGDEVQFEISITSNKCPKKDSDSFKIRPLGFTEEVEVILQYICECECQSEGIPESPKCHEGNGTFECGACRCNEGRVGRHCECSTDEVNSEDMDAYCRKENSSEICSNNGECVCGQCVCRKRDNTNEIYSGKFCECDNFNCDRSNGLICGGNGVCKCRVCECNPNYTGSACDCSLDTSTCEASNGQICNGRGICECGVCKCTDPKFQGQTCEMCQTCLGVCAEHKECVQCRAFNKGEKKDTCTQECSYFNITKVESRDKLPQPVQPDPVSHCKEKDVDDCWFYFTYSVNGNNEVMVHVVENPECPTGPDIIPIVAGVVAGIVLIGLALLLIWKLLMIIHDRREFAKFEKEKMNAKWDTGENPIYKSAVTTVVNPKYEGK

| SMILES | RELATIVE POTENCY (relative peptide inhibition of VLA-4 binding CS-1) | RELATIVE POTENCY (relative peptide inhibition of VLA-4 binding CS-1) [1] | further results |
| --- | --- | --- | --- |
| CC(C)C[C@H](NC(=O)c1ccncc1)C(=O)N[C@@H](CC(=O)O)C(=O)N[C@@H](Cc1ccccc1)C(=O)N1CCC[C@@H]1C(N)=O [X L D F p pyridine-4-carbonyl amide] (Isonicotinoyl-LDF[dP]-NH2) | 656 |  |  |
| CC(C)C[C@H](NC(=O)Cc1ccccc1)C(=O)N[C@@H](CC(=O)O)C(=O)N[C@@H](Cc1ccccc1)C(N)=O [X L D F phenylacetyl amide] (PhAc-Leu-Asp-Phe-NH2) |  | 1 |  |
| CC(C)C[C@H](NC(=O)Cc1ccccc1)C(=O)N[C@@H](CC(=O)O)C(=O)NCC(=O)N1CCOCC1 [X L D G Z phenylacetyl morpholinamide] (PhAc-Leu-Asp-Gly-Morpholide) |  | 9 |  |
| CC(C)C[C@H](NC(=O)Cc1ccccc1)C(=O)N[C@@H](CC(=O)O)C(=O)N[C@@H](CC(C)C)C(=O)N1CCOCC1 [X L D L Z phenylacetyl morpholinamide] (PhAc-Leu-Asp-Leu-Morpholide) |  | 291 |  |
| CC(C)C[C@H](NC(=O)Cc1ccccc1)C(=O)N[C@@H](CC(=O)O)C(=O)N[C@@H](CO)C(=O)N1CCC[C@@H]1C(N)=O [X L D S p phenylacetyl amide] (PhAc-LDS[dP]-NH2) |  | 17 |  |
| CC(C)C[C@H](NC(=O)c1ccccc1)C(=O)N[C@@H](CC(=O)O)C(=O)N[C@H](C(=O)N1CCC[C@H]1C(N)=O)C(C)C [X L D V P benzoyl amide] |  | 37 | RELATIVE POTENCY (relative peptide inhibition of VLA-4 binding CS-1) (normalized IC50 relative to standard peptide of SEQ ID NO:3 (=1), about one-tenth or less of the standard is assigned zero, listed as X L D V p benzoyl amide): 20 |
| CC(C)C[C@H](NC(=O)c1cccc2ccccc12)C(=O)N[C@@H](CC(=O)O)C(=O)N[C@H](C(=O)N1CCC[C@@H]1C(N)=O)C(C)C [X L D V p 1-naphthoyl amide] | 1 |  |  |
| Cc1cccc(C(=O)N[C@@H](CC(C)C)C(=O)N[C@@H](CC(=O)O)C(=O)N[C@H](C(=O)N2CCC[C@@H]2C(N)=O)C(C)C)c1C [X L D V p 2,3-dimethylbenzoyl amide] | 9 |  |  |
| Cc1cccc(C)c1C(=O)N[C@@H](CC(C)C)C(=O)N[C@@H](CC(=O)O)C(=O)N[C@H](C(=O)N1CCC[C@@H]1C(N)=O)C(C)C [X L D V p 2,6-dimethylbenzoyl amide] | 5 |  |  |
| CC(C)C[C@H](NC(=O)c1ccc2ccccc2c1)C(=O)N[C@@H](CC(=O)O)C(=O)N[C@H](C(=O)N1CCC[C@@H]1C(N)=O)C(C)C [X L D V p 2-naphthoyl amide] | 1 |  |  |
| Cc1ccc(C(=O)N[C@@H](CC(C)C)C(=O)N[C@@H](CC(=O)O)C(=O)N[C@H](C(=O)N2CCC[C@@H]2C(N)=O)C(C)C)cc1C [X L D V p 3,4-dimethylbenzoyl amide] | 8 |  |  |
| CCC(C)CC(=O)N[C@@H](CC(C)C)C(=O)N[C@@H](CC(=O)O)C(=O)N[C@H](C(=O)N1CCC[C@@H]1C(N)=O)C(C)C (stereo partly shown) [X L D V p 3-methylvaleroyl amide] | 3 |  |  |
| CC(C)CCC(=O)N[C@@H](CC(C)C)C(=O)N[C@@H](CC(=O)O)C(=O)N[C@H](C(=O)N1CCC[C@@H]1C(N)=O)C(C)C [X L D V p 4-methylvaleroyl amide] | 3 |  |  |
| CC(C)C[C@H](NC(=O)C12CC3CC(CC(C3)C1)C2)C(=O)N[C@@H](CC(=O)O)C(=O)N[C@H](C(=O)N1CCC[C@@H]1C(N)=O)C(C)C [X L D V p adamantanecarbonyl amide] | 1 |  |  |
| CC(C)C[C@H](NC(=O)C=Cc1ccccc1)C(=O)N[C@@H](CC(=O)O)C(=O)N[C@H](C(=O)N1CCC[C@@H]1C(N)=O)C(C)C [X L D V p cinnamoyl amide] | 1 |  |  |
| CC(C)C[C@H](NC(=O)CC1CCCCC1)C(=O)N[C@@H](CC(=O)O)C(=O)N[C@H](C(=O)N1CCC[C@@H]1C(N)=O)C(C)C [X L D V p cyclohexaneacetyl amide] | 2 |  |  |
| CC(C)C[C@H](NC(=O)C1CCCCC1)C(=O)N[C@@H](CC(=O)O)C(=O)N[C@H](C(=O)N1CCC[C@@H]1C(N)=O)C(C)C [X L D V p cyclohexanecarbonyl amide] | 5 |  |  |
| CC(C)C[C@H](NC(=O)CCC1CCCCC1)C(=O)N[C@@H](CC(=O)O)C(=O)N[C@H](C(=O)N1CCC[C@@H]1C(N)=O)C(C)C [X L D V p cyclohexanepropionyl amide] | 1 |  |  |
| CC(C)C[C@H](NC(=O)Cc1ccccc1)C(=O)N[C@@H](CC(=O)O)C(=O)N[C@H](C(=O)N1CCC[C@@H]1C(N)=O)C(C)C [X L D V p phenylacetyl amide, N-phenylacetyl-Leu-Asp-Val-D-Pro-NH2] |  | 106 |  |
| CC(C)C[C@H](NC(=O)CCc1ccccc1)C(=O)N[C@@H](CC(=O)O)C(=O)N[C@H](C(=O)N1CCC[C@@H]1C(N)=O)C(C)C [X L D V p phenylpropionyl amide] | 14 |  |  |
| CC(C)C[C@@H](C(=O)N[C@@H](CC(=O)O)C(=O)N[C@H](C(=O)N1CCC[C@@H]1C(N)=O)C(C)C)N1C(=O)c2ccccc2C1=O [X L D V p phthalimido amide] | 140 |  |  |
| CC(C)C[C@H](NC(=O)c1ccccn1)C(=O)N[C@@H](CC(=O)O)C(=O)N[C@H](C(=O)N1CCC[C@@H]1C(N)=O)C(C)C [X L D V p pyridine-2-carbonyl amide] | 8 |  |  |
| CC(C)C[C@H](NC(=O)c1cccnc1)C(=O)N[C@@H](CC(=O)O)C(=O)N[C@H](C(=O)N1CCC[C@@H]1C(N)=O)C(C)C [X L D V p pyridine-3-carbonyl amide] | 71 |  |  |
| CC(C)C[C@H](NC(=O)Cc1ccccc1)C(=O)N[C@@H](CC(=O)O)C(=O)N[C@@H](Cc1c[nH]c2ccccc12)C(=O)N1CCC[C@@H]1C(N)=O [X L D W p phenylacetyl amide] (PhAc-LDW[dP]-NH2) |  | 184 |  |
| CC(C)C[C@H](NC(=O)Cc1ccccc1)C(=O)N[C@@H](CC(=O)O)C(=O)N[C@@H](Cc1ccc(O)cc1)C(=O)N1CCOCC1 [X L D Y Z phenylacetyl morpholinamide, N-phenylacetyl-Leu-Asp-Tyr-morpholinamide] (PhAc-Leu-Asp-Tyr-Morpholide) |  | 313 |  |
| CC(C)C[C@H](NC(=O)Cc1ccccc1)C(=O)N[C@@H](CC(=O)O)C(=O)N[C@@H](Cc1ccc(O)cc1)C(=O)N1CCC[C@@H]1C(N)=O [X L D Y p phenylacetyl amide, N-phenylacetyl-Leu-Asp-Tyr-D-Pro-NH2] (PhAc-LDY[dP]-NH2) |  | 640 | RELATIVE POTENCY (relative peptide inhibition of VLA-4 binding CS-1) (normalized IC50 relative to standard peptide of SEQ ID NO:3 (=1), about one-tenth or less of the standard is assigned zero, listed as X L D Y P phenylacetyl amide): 405 |
| CC(C)C[C@H](NC(=O)Cc1ccccc1)C(=O)N[C@@H](CC(=O)O)C(=O)NNC(=O)OC(C)(C)C [X L D Z phenylacetyl N'-t-Boc-hydrazide] |  | 2 |  |
| CC(C)C[C@H](NC(=O)Cc1ccccc1)C(=O)N[C@@H](CC(=O)O)C(=O)NCc1ccccc1 [X L D Z phenylacetyl benzylamide] (PhAc-Leu-Asp-NHBn) |  | 19 |  |
| CC(C)C[C@H](NC(=O)Cc1ccccc1)C(=O)N[C@@H](CC(=O)O)C(=O)NC(c1ccccc1)c1ccccc1 [X L D Z phenylacetyl benzylhydrylamide] |  | 3 |  |
